Measurements published in publication PMC8279484 (Journal of Medicinal Chemistry, 2021).

Experiments:
Format in all cases: cell-based, human
IFNγ = assay: LPS-induced IFNγ release from THP-1 Lucia monocytes (multiplex electrochemiluminescence)
Description: (§1) LXA41 and all of the tested sLXms were dissolved in ethanol and further diluted in a culture medium (final ethanol concentration 0.1%; equivalent concentrations were used as the vehicle control). Prior to in vitro experiments, THP-1-Lucia NF-κB cells were harvested and plated at 1 × 10^5 cells/well on 96-well plates and left to settle in the incubator at 37 °C, 95% humidity, and 5% CO2, in 0.1% FBS-containing media, pretreated for 30 min with increasing doses of LXA41, sLXms (from 10^–12 to 10^–6 M), or appropriate controls, followed by stimulation with 50 ng/mL LPS for 24 h. Untreated (Unt) or vehicle-treated (Veh) cells were used as negative controls; 1 pM (1R)-5, the (1R)-epimer of the benzo-mimetic, was used as a positive control for any aromatic mimetic; and, finally, we compared the observed effects to the conventional glucocorticoid dexamethasone (Dex) treatment, at 1 μM.
(§2) After 24 h of exposure to LXA41, sLXms, or vehicle, followed by LPS stimulation (50 ng/mL), as described above, THP-1-Lucia NF-κB-cell supernatants were collected and cleared by centrifugation. Concentrations of IFN-γ, IL-1β, IL-6, IL-8, IL-10, IL-12p70, and TNF-α in culture supernatants were assessed by electro-chemi-luminescent detection, using a commercially available human 96-well plate “multiplex” (several analytes in the same well) kit for tissue culture samples, according to the manufacturers’ guidelines.
(§3) The “coding” of the heat-map indicates the arbitrary criteria to assign points to each single PD component (efficacy = Imax or Emax; potency = IC50 or EC50; slope = HS) to generate a final (aggregate) relative PD score. If a single PD component was greater than the reference level (x > 1), then the single-component relative score was arbitrarily set to +1 (light green) or +2 (dark green). If a single PD component was equal to the reference level (x = 1), then the single-component relative score was arbitrarily set to 0 (gray). If a single PD component was smaller than the reference level (x < 1), then the single-component relative score was arbitrarily set to −1 (light red) or −2 (dark red). If the curve of a single PD component was best fitting to a flat line (x = 0), then the single-component relative score was arbitrarily set to −4 (purple) (Table S1).

NF-κB = assay: LPS-induced NF-κB-driven luciferase gene reporter assay in THP-1 Lucia monocytes; conditions: for Rel. Slope: HS relative to LXA4 (1); for Efficacy Rel. Eff.: Imax relative to LXA4 (1); for reduction of LPS-induced NF-κB-driven luciferase activity: approximate extent; for reduction of LPS-induced NF-κB-driven luciferase activity / Imax (%): 1 pM–1 μM; for Imax (%): maximal % inhibition of LPS (50 ng/mL)-stimulated NF-κB luciferase activity, 30 min pretreatment
Description: Mycoplasma-free THP-1-Lucia NF-κB cells were grown in an RPMI 1640 (Gibco) medium containing 2 mM L-glutamine, 1.50 g/L sodium bicarbonate, 4.50 g/L glucose, 10 mM N-(2-hydroxyethyl)piperazine-N′-ethanesulfonic acid (HEPES), and 1 mM sodium pyruvate. Then, 10% heat-inactivated fetal bovine serum (FBS) (30 min at 56 °C), 100 μg/mL Normocin, and Pen-Strep (50 U/mL to 50 μg/mL) were also added to the growth media. As THP-1-Lucia cells were resistant to Zeocin, the latter was used as a selective antibiotic (a high dose, i.e., 100 μg/mL, was alternated every 2 weeks with a low dose, i.e., 10 μg/mL).
as §1, with “h.” for “h. Untreated (Unt) or vehicle-treated (Veh) cells were used as negative controls; 1 pM (1R)-5, the (1R)-epimer of the benzo-mimetic, was used as a positive control for any aromatic mimetic; and, finally, we compared the observed effects to the conventional glucocorticoid dexamethasone (Dex) treatment, at 1 μM.”
NFκB activity was monitored in the human THP-1 monocytic leukemia cell line containing a stably integrated NF-κB-inducible Lucia reporter construct (as previously reported).[21] When stimulated with LPS, the transcription factor NF-κB is activated, upregulating the synthesis of proinflammatory mediators, thus bringing about an inflammatory response. In these cells, NF-κB activation is linked to a […] luciferase gene and can be measured using luminescence.
Heat-killed listeria monocytogenes (HKLM) (10^8/mL) was used as a positive control.[28] The levels of NF-κB-induced Luciferase were then measured in a culture supernatant using QUANTI-Luc as the detection reagent, and measurements were taken on a bioluminescence reader.
After 24 h, the levels of NF-κB-induced Lucia were assayed in a cell culture supernatant using QUANTI-Luc, as a detection reagent, on a bioluminescence reader (Synergy HT, BioTek Instruments, Inc. Vermont). Aliquots of the supernatant were retained for subsequent cytokine and LDH assays. Cellular proteins were extracted with a radioimmunoprecipitation assay (RIPA) buffer (Thermo Fisher, Ireland), supplemented with protease inhibitors (Sigma-Aldrich, Ireland). Lysates were clarified by centrifugation (3200g, 10’, 4 °C) to remove cell debris, and the cell protein level was quantified by performing a bicinchoninic acid (BCA) assay (as per the manufacturer’s instructions) reading the protein absorbance at 570 nm, using a spectrophotometer (SPECTRAMAX M2, Molecular Devices (U.K.) Limited). A “relative luminescence unit” (RLU) was obtained using the average value of the lum/abs ratio of two replicates.
The “coding” of the heat-map indicates the arbitrary criteria to assign points to each single PD component (efficacy = Imax or Emax; potency = IC50 or EC50; slope = HS) to generate a final (aggregate) relative PD score. […] If a single PD component was equal to the reference level (x = 1), then the single-component relative score was arbitrarily set to 0 (gray). If a single PD component was smaller than the reference level (x < 1), then the single-component relative score was arbitrarily set to −1 (light red) or −2 (dark red). If the curve of a single PD component was best fitting to a flat line (x = 0), then the single-component relative score was arbitrarily set to −4 (purple) (Table S1).

THP-1 LUCIA monocytes [1] = assay: In vitro safety study: Safety index (Si), activity versus toxicity; conditions: for IC50: Homo sapiens, THP-1, highest IC50 among the LPS-challenged assays (NF-κB activity, cytokine, LDH release), read-out: Extrinsic Activity hIC50; for Safety Index TC50/IC50: ratio of intrinsic TC50 to extrinsic hIC50
Description: A postanalysis “safety study” was conducted on all QNX-sLXms. For each tested compound, we calculated an in vitro “Safety index” (Si) by relating its “anti-inflammatory half-maximal activity” (the highest dose among the IC50 of the extrinsic LPS-challenged phenotype: NF-κB activity, proinflammatory cytokine, and LDH release) to its intrinsic “toxicity” (expressed as the relative half-maximal LDH-associated cytotoxicity). The generated Si is potentially predictive of a translational “therapeutic” range: the higher the Si, the safer the molecule is. As summarized in Table S4, Si values from all tested compounds fall in a broad range (7–50).

THP-1 LUCIA monocytes [2] = assay: Intrinsic cytotoxicity: LDH release without LPS; conditions: for Intrinsic Toxicity Level: LDH-associated level of cytotoxicity (high / moderate / low); for Intrinsic Toxicity TC50 (pM): half-maximal intrinsic LDH-associated toxic activity, no LPS
Description: We investigated the potential cytotoxicity of all candidate sLXms by assaying LDH release.[50] The response to LPS was arbitrarily set to 100%, and values were expressed relative to this. As previously reported by others, LPS provokes LDH release.[51] […] Ultimately, untreated cells defined the spontaneous cell release thresholds.
Lactate dehydrogenase (LDH) was assayed in cell supernatants to investigate possible cytotoxicity of the lead compound. LDH is rapidly released into the culture medium after disruption of the plasma membrane.[67],[69] After 24 h of exposure to sLXms, vehicle, or controls, followed by LPS stimulation, as described above, THP-1-Lucia NF-κB-cell supernatants were collected and LDH was assayed. Cytotoxicity was evaluated relative to vehicle controls. Maximum releasable LDH was determined in cells lysed with 2% Triton-X-100 (Sigma-Aldrich, Ireland). LDH levels were assessed by reading the absorbance at 490 nm (protein) and 690 nm (background noise), using a spectrophotometer (SPECTRAMAX M2, Molecular Devices (U.K.) Limited).

IL-6 = assay: LPS-induced IL-6 release from THP-1 Lucia monocytes (multiplex electrochemiluminescence)
Description: as §1, §2, §3

IL-1β = assay: LPS-induced IL-1β release from THP-1 Lucia monocytes (multiplex electrochemiluminescence)
Description: as §1, §2, §3

[3] = Homo sapiens, THP-1, LPS 50 ng/mL, 24 h
[4] = concentration–response, LPS 50 ng/mL, 24 h

Structure (SMILES)	Rel. Slope (NF-κB)	Efficacy Rel. Eff. (NF-κB)	reduction of LPS-induced NF-κB-driven luciferase activity (NF-κB)	Imax (%) (NF-κB; 24 h)	(Single component) Rel. Score: Rel. Sl. (NF-κB; score relative to LXA4 (1))	IC50 (THP-1 LUCIA monocytes [1]) [nM]	Safety Index TC50/IC50 (THP-1 LUCIA monocytes [1])	Intrinsic Toxicity Level (THP-1 LUCIA monocytes [2])	Intrinsic Toxicity TC50 (pM) (THP-1 LUCIA monocytes [2])	also measured
CCCCCCC[C@@H](O)c1nc2ccccc2nc1/C=C/[C@@H](O)[C@@H](O)CCCC(=O)OC [(R)-8, Methyl (5S,6R,E)-5,6-Dihydroxy-8-(3-((R)-1-hydroxyoctyl)quinoxalin-2-yl)oct-7-enoate]	0.49	0.96	10–20%	23 ± 7	-1 (0.01 < x < 1)	0.2	50	Low-Mod.	10,000 pM	PD score, IFNγ release (IFNγ; relative to LXA4 (1)): negative PD scores; IC50 (NF-κB; Homo sapiens, THP-1, LPS 50 ng/mL, 24 h, read-out: Potency IC50): 0.04 nM; Potency Rel. Pot. (NF-κB; IC50 relative to LXA4 (1)): 1.5; IC50 (range in words) (NF-κB; LPS 50 ng/mL, 24 h): “pM” range; (Single component) Rel. Score: Rel. Pot. (NF-κB; score relative to LXA4 (1)): 1 (1 < x < 5); (Aggregate) Rel. PD Score (NF-κB; sum of efficacy, potency, slope scores relative to LXA4 (1)): 0
CCCCC[C@H](O)c1nc2ccccc2nc1/C=C/[C@@H](O)[C@@H](O)CCCC(=O)OC [(S)-6, Methyl (5S,6R,E)-5,6-Dihydroxy-8-(3-((S)-1-hydroxyhexyl)quinoxalin-2-yl)oct-7-enoate]	0.47	1.42	25–35%	34 ± 9	1 (1 < x < 10)	0.02	10	Low-Mod.	200 pM	IC50 (IFNγ; [3]): 2 nM; Imax, IFNγ release (IFNγ; [4]): 74 ± 4%; IC50 (IL-6; [3]): 0.001 nM; Imax, IL-6 release (IL-6; [4]): 98 ± 1%; PD score, IL-6 release (IL-6; relative to LXA4 (1)): +2; rel. slope, IL-6 release (IL-6; relative to LXA4 (1)): 2.4; Imax, IL-1β release (IL-1β; [4]): completely lost the protective effect; PD score, IL-1β release (IL-1β; relative to LXA4 (1)): −6
